Reference: ChEMBL document CHEMBL1132074, “Potent and selective bicyclic lactam inhibitors of thrombin: Part 3: P1' modifications” (Bioorg Med Chem Lett, 1999)

Columns and labels:
Prothrombin = Prothrombin (Homo sapiens, UniProt P00734); assay: Inhibition of human Thrombin
Serine protease 1 [1] = biological target: T1, Serine protease 1 (Homo sapiens, UniProt P07477); assay: In vitro inhibitory activity against human trypsin
Serine protease 1 [2] = biological target: T1, Serine protease 1; assay: In vitro inhibitory activity against human trypsin at 100 uM

T1 sequence (P07477 whole entry): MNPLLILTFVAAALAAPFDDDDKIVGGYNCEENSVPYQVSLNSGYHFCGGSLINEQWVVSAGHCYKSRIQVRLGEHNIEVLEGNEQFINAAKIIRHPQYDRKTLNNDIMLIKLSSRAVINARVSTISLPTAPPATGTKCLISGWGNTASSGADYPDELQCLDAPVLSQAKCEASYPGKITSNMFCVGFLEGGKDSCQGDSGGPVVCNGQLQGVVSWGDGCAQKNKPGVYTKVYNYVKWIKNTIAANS

| IC50 (Prothrombin) | IC50 (Serine protease 1 [1]) | inhibition (Serine protease 1 [2]) | Compound |
| --- | --- | --- | --- |
| 77 nM | 14 nM | – | NCCCC[C@H](NC(=O)[C@@H]1CC[C@H]2CN(C(=O)CCc3ccccc3)CC(=O)N21)C(=O)c1nccs1 |
| 51 nM | 3360 nM | – | Cn1c(C(=O)[C@H](CCCNC(=N)N)NC(=O)[C@@H]2CC[C@H]3CN(C(=O)CCc4ccccc4)CC(=O)N32)nc2ccccc21 |
| 340 nM | 160 nM | – | N=C(N)NCCC[C@H](NC(=O)[C@@H]1CC[C@H]2CN(C(=O)CCc3ccccc3)CC(=O)N21)C(=O)c1ccccn1 |
| – | < 1 nM | – | N=C(N)NCCC[C@H](NC(=O)[C@@H]1CC[C@H]2CN(C(=O)CCc3ccccc3)CC(=O)N21)C(=O)c1nccs1 |
| 15 nM | 12 nM | – | Cc1nc(C(=O)[C@H](CCCN=C(N)N)NC(=O)[C@@H]2CC[C@H]3CN(C(=O)CCc4ccccc4)CC(=O)N32)sc1CCO |
| 2370 nM | 27400 nM | – | Cn1ccnc1C(=O)[C@H](CCCNC(=N)N)NC(=O)[C@@H]1CC[C@H]2CN(C(=O)CCc3ccccc3)CC(=O)N21 |
| 2050 nM | 8490 nM | – | Cn1c(C(=O)[C@H](CCCCN)NC(=O)[C@@H]2CC[C@H]3CN(C(=O)CCc4ccccc4)CC(=O)N32)nc2ccccc21 |
| 44 nM | 24 nM | – | Cc1csc(C(=O)C(CCCNC(=N)N)NC(=O)[C@@H]2CC[C@H]3CN(C(=O)CCc4ccccc4)CC(=O)N32)n1 (some centres not stated) |

More lines, now with the values behind:

| Compound | IC50 (Prothrombin) | IC50 (Serine protease 1 [1]) | inhibition (Serine protease 1 [2]) |
| --- | --- | --- | --- |
| N=C(N)NCCC[C@H](NC(=O)[C@@H]1CC[C@H]2CN(C(=O)CCc3ccccc3)CC(=O)N21)C(=O)c1nc2ccccc2s1 | < 1 nM | < 1 nM | – |
| N=C(N)NCCC[C@H](NC(=O)[C@@H]1CC[C@H]2CN(C(=O)CCc3ccccc3)CC(=O)N21)C(=O)c1nc2c(s1)CCC2 | 18 nM | 2 nM | – |
| N=C(N)c1cccc(CC(NC(=O)[C@@H]2CC[C@H]3CN(C(=O)CCc4ccccc4)CC(=O)N32)C(=O)c2nc3ccccc3s2)c1 (some centres not stated) | 57 nM | 970 nM | – |
| Cn1c(C(=O)[C@H](CC2CCCN(C(=N)N)C2)NC(=O)[C@@H]2CC[C@H]3CN(C(=O)CCc4ccccc4)CC(=O)N32)nc2ccccc21 (some centres not stated) | 750 nM | – | 40% |
| Cn1c(C(=O)[C@H](Cc2cccc(C(=N)N)c2)NC(=O)[C@@H]2CC[C@H]3CN(C(=O)CCc4ccccc4)CC(=O)N32)nc2ccccc21 | 450 nM | 18700 nM | – |
| N=C(N)N1CCCC(C[C@H](NC(=O)[C@@H]2CC[C@H]3CN(C(=O)CCc4ccccc4)CC(=O)N32)C(=O)c2nc3ccccc3s2)C1 (some centres not stated) | < 1 nM | 590 nM | – |
